Assay results: patent US10570168B2, “2′ and/or 5′ amino-acid ester phosphoramidate 3′-deoxy adenosine derivatives as anti- cancer compounds” (NuCana plc, priority 2014, dated 2020)

Assays:
Assay type in all cases: cell-based
HL-60 [1] = test: CellTiterGlo viability assay, initial screening; conditions: Homo sapiens, HL-60, 72 h, read-out: IC50 (relative IC50)
Procedure: (§1) In vitro viability assays were performed to assess the effects of compounds on cell viability in 7 selected cell lines over 72 hr using the CellTiterGlo (CTG, Promega-G7573) assay. The tests were performed in duplicates with treatment of compounds at 9 points, 3.16 folds titration in 96 well plates over ˜72 hr. The compound starting concentrations were […]. Cell viability assay using CellTiterGlo in 96-well plate were performed. The compound treatment was 72 hrs, under standard growth conditions, and in duplicate. Compounds were dissolved to 40 mM with thawed […]. Compounds were serially diluted at 3.16 fold in thawed DMSO, and warmed to 37° C. before being dissolved in media (2 μl+200 μl). After compounds were dissolved in media (media was also warmed to 37° C.). Media containing compounds were warmed to 37° C. in incubator and then compounds in media were added to cell plates (50 μl+50 μl), in duplicates. The compounds final concentrations were from […] to 19.9 nM. All compound solubilities were checked and recorded again, then the plates were transferred to CO2 tissue culture incubator immediately and incubated for 3 days. DMSO final concentration is 0.5%.

HepG2 [2] = test: CellTiterGlo viability assay, initial screening; conditions: Homo sapiens, HepG2, 72 h, read-out: IC50 (relative IC50)
Procedure: as §1

K562 [3] = test: CellTiterGlo viability assay, initial screening; conditions: Homo sapiens, K562, 72 h, read-out: IC50 (relative IC50)
Procedure: as §1

KG-1 [4] = test: CellTiterGlo viability assay, initial screening; conditions: Homo sapiens, KG-1, 72 h, read-out: IC50 (relative IC50)
Procedure: as §1

MCF-7 = test: CellTiterGlo viability assay, initial screening; conditions: Homo sapiens, MCF7, 72 h, read-out: IC50 (relative IC50)
Procedure: as §1

MOLT-4 [5] = test: CellTiterGlo viability assay, initial screening; conditions: Homo sapiens, MOLT-4, 72 h, read-out: IC50 (relative IC50)
Procedure: as §1

CCRFCEM = test: Solid tumour and haematological malignancy assay (CellTiterGlo); conditions: Homo sapiens, CCRF-CEM, 72 h; for IC50: read-out: IC50 (absolute IC50); for Emax: read-out: MI %
Procedure, shortened: (§2)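 Using duplicate wells at 0.5% final DMSO, compound effect on viability is determined by ATP-based CellTiterGlo luminescence following a 3-day incubation at 37° C.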

HEL92.1.7 = test: as above; conditions: Homo sapiens, HEL 92.1.7, 72 h; for IC50: read-out: IC50 (absolute IC50); for Emax: read-out: MI %
Procedure, shortened: as §2

HL-60 [6] = test: as above; conditions: Homo sapiens, HL-60, 72 h; for IC50: read-out: IC50 (absolute IC50); for Emax: read-out: MI %
Procedure, shortened: as §2

HT29 = test: as above; conditions: Homo sapiens, HT-29, 72 h; for IC50: read-out: IC50 (absolute IC50); for Emax: read-out: MI %
Procedure, shortened: as §2

HepG2 [7] = test: as above; conditions: Homo sapiens, HepG2, 72 h; for IC50: read-out: IC50 (absolute IC50); for Emax: read-out: MI %
Procedure, shortened: as §2

K562 [8] = test: as above; conditions: Homo sapiens, K562, 72 h; for IC50: read-out: IC50 (absolute IC50); for Emax: read-out: MI %
Procedure, shortened: as §2

KG-1 [9] = test: as above; conditions: Homo sapiens, KG-1, 72 h; for IC50: read-out: IC50 (absolute IC50); for Emax: read-out: MI %
Procedure, shortened: as §2

MCF7 = test: as above; conditions: Homo sapiens, MCF7, 72 h; for IC50: read-out: IC50 (absolute IC50); for Emax: read-out: MI %
Procedure, shortened: as §2

MiaPaCa-2 = test: as above; conditions: Homo sapiens, MIA PaCa-2, 72 h; for IC50: read-out: IC50 (absolute IC50); for Emax: read-out: MI %
Procedure, shortened: as §2

HS445 = test: as above; conditions: Hs 445, 72 h; for IC50: read-out: IC50 (absolute IC50); for Emax: read-out: MI %
Procedure: (§3) In vitro viability assay were performed to assess the effects of compounds on cell viability in selected cell lines over 72 hr using the CellTiterGlo (CTG, Promega-G7573) assay. The tests were performed in duplicates with treatment of compounds at 9 points, 3.16 folds titration in 96 well plates over ˜72 hr. The compound starting concentrations were […]. Cell viability assay using CellTiterGlo in 96-well plate were performed. Compound treatment 72 hrs, standard growth conditions, duplicates. Compounds were dissolved to 40 mM with thawed […]. Compounds were serially diluted at 3.16 fold in thawed DMSO, and warmed to 37° C. before being dissolved in media ([…]). After compounds were dissolved in media, media containing compounds were warmed to 37° C. in incubator and then compounds in media were added to cell plates ([…]) in duplicates. The compounds' final concentrations were from […] to 19.9 nM. All compound solubilities were checked and recorded again, then the plates were transferred to CO2 tissue culture incubator immediately and incubated for 3 days. DMSO final concentration is 0.5%.

Jurkat = test: as above; conditions: Homo sapiens, 72 h, read-out: IC50 (absolute IC50)
Procedure: as §3

MOLT-4 [10] = test: as above; conditions: Homo sapiens, MOLT-4, 72 h; for IC50: read-out: IC50 (absolute IC50); for Emax: read-out: MI %
Procedure: as §3

SW620 = test: as above; conditions: Homo sapiens, SW-620, 72 h; for IC50: read-out: IC50 (absolute IC50); for Emax: read-out: MI %
Procedure: as §3

THP-1 = test: as above; conditions: Homo sapiens, THP-1, 72 h; for IC50: read-out: IC50 (absolute IC50); for Emax: read-out: MI %
Procedure: as §3

Compound	IC50 (HL-60 [1]) [µM]	IC50 (HepG2 [2]) [µM]	IC50 (K562 [3]) [µM]	IC50 (KG-1 [4]) [µM]	IC50 (MCF-7) [µM]	IC50 (MOLT-4 [5]) [µM]	IC50 (CCRFCEM) [µM]	Emax (CCRFCEM) [%]	IC50 (HEL92.1.7) [µM]	IC50 (HL-60 [6]) [µM]	IC50 (HT29) [µM]	IC50 (HepG2 [7]) [µM]	IC50 (K562 [8]) [µM]	IC50 (KG-1 [9]) [µM]	IC50 (MCF7) [µM]	IC50 (MiaPaCa-2) [µM]	IC50 (HS445) [µM]	IC50 (Jurkat) [µM]	IC50 (MOLT-4 [10]) [µM]	IC50 (SW620) [µM]	other results
C[C@H](NP(=O)(OC[C@@H]1C[C@@H](O)[C@H](n2cnc3c(N)ncnc32)O1)Oc1cccc2ccccc12)C(=O)OCc1ccccc1 (stereo partly drawn) [B, (2S)-benzyl 2-(((((2S,4R,5R)-5-(6-amino-9H-purin-9-yl)-4-hydroxytetrahydrofuran-2-yl)methoxy)(naphthalen-1-yloxy)phosphoryl)amino)propanoate]	5 to 15	5 to 15	0.1 to 5	5 to 15	0.1 to 5	0.1 to 5	0.1 to 5	100	0.1 to 5	0.1 to 5	5 to 15	5 to 15	0.1 to 5	5 to 15	0.1 to 5	0.1 to 5	5 to 15	0.1 to 5	0.1 to 5	5 to 15	IC50 (THP-1): 15 to 100 µM
Nc1ncnc2c1ncn2[C@@H]1O[C@H](COP(=O)(NCC(=O)OCc2ccccc2)Oc2ccccc2)C[C@H]1O (stereo partly drawn) [C, Benzyl 2-(((((2S,4R,5R)-5-(6-amino-9H-purin-9-yl)-4-hydroxytetrahydrofuran-2-yl)methoxy)(phenoxy)phosphoryl)amino)acetate]	15 to 100	15 to 100	5 to 15	> 100	5 to 15	0.1 to 5	5 to 15	100	0.1 to 5	5 to 15	15 to 100	15 to 100	5 to 15	15 to 100	0.1 to 5	5 to 15	15 to 100	5 to 15	0.1 to 5	15 to 100	Emax (HEL92.1.7): 99%; Emax (HL-60 [6]): 100%; Emax (HT29): 99%; Emax (HepG2 [7]): 99%; Emax (K562 [8]): 100%; Emax (KG-1 [9]): 102%; Emax (MCF7): 102%; Emax (MiaPaCa-2): 106%; Emax (HS445): 102%; Emax (MOLT-4 [10]): 92%; Emax (SW620): 100%; IC50 (THP-1): 15 to 100 µM; Emax (THP-1): 99%
C[C@H](NP(=O)(OC[C@@H]1CC(O)[C@H](n2cnc3c(N)ncnc32)O1)Oc1ccccc1)C(=O)OCc1ccccc1 (stereo partly drawn) [Compound A, 3′-deoxyadenosine-5′-O-[phenyl(benzyloxy-L-alaninyl)] phosphate]	5 to 15	5 to 15	0.1 to 5	5 to 15	0.1 to 5	0.1 to 5	0.1 to 5	100	5 to 15	5 to 15	5 to 15	15 to 100	0.1 to 5	15 to 100	0.1 to 5	5 to 15	15 to 100	0.1 to 5	0.1 to 5	15 to 100	Emax (HEL92.1.7): 100%; Emax (HL-60 [6]): 99%; Emax (HT29): 93%; Emax (HepG2 [7]): 75%; Emax (K562 [8]): 96%; Emax (KG-1 [9]): 100%; Emax (MCF7): 99%; Emax (MiaPaCa-2): 96%; Emax (HS445): 98%; Emax (MOLT-4 [10]): 98%; Emax (SW620): 85%; IC50 (THP-1): 15 to 100 µM; Emax (THP-1): 74%
